In patent publication EP4578856A1, “HETEROCYCLIC COMPOUND” (Ubience Inc., priority 2022, dated 2024):

How the values were obtained:
FAK protein = FAK protein (Homo sapiens, UniProt Q05397); test: Degradation inducing activity of FAK protein in PA-1 cells, Western blotting (Simple Western JESS); assay type: cell-based; parameters: endogenous in cells; host or cells: PA-1 (ATCC CRL-1572); conditions: at 10 µM, 24 hours
Method: In vitro degradation inducing activity of FAK protein of compounds of Examples was evaluated by Western Blotting (WB).
By a test compound, 10 mM DMSO solution was prepared, which was used as a 10 µM test compound solution. Further, the solution was diluted 10-fold with DMSO to prepare a 1 mM solution, which was used as a 1 µM test compound solution.
PA-1 cells (ATCC: CRL-1572, Lot: 70055709) were cultured in Eagle's Minimum Essential Medium supplemented with 10% FBS and 1% Penicillin/Streptomycin. The PA-1 cells seeded in a 24 well plate at 200,000 cells/well/1 mL were cultured for 24 hours, and then 1 µL of DMSO or a test compound solution was added thereto and treatment was performed for 24 hours. Cells were harvested and lysed for 20 minutes on ice using RIPA lysis buffer (Sigma, Cat#R0278) supplemented with protease inhibitor cocktail (Sigma, Cat#P8340; Roche, Cat#P11873580001), and phosphatase inhibitor cocktail (Sigma, Cat#P5726, P0044). The lysate was sonicated (15 seconds, amplitude 30%, 1 cycle) and then centrifuged at 12500 rpm for 15 minutes at 4°C. The protein concentration was determined by BCA assay kit (Thermo Fisher Scientific, Cat#23225).
The western blotting was performed using Simple Western JESS (protein simple). A cell lysis sample (protein amount; about 2 µg) was loaded on a plate of Simple Western JESS, and the expression level of […] was detected using a 12-230 kDa Wes Separation Module (Protein simple, Cat#SM-WO04), an Anti-Rabbit Detection Module for Wes (Protein simple, Cat#DM-001), and a Total Protein Detection Module for Wes (Protein simple, Cat#DM-TP01). As the primary antibody, a material obtained by diluting FAK Rabbit mAb (Cell Signaling Technology, Cat#3285) at 1:100 was used, and as the secondary antibody, a material obtained by diluting HRP-labeled anti-rabbit IgG antibody (Cell Signaling Technology, Cat#7074S) at 1:250 was used. The expression level of the target protein was standardized using the total protein amount loaded as a reference. The standardized expression level data of the control (DMSO) was taken as 100%, and the degradation rate (%) was calculated from the average standardized expression level data of the test compounds (compounds of Examples 109 to 128). All analysis steps, such as data detection and analysis, are fully automated.

human ALK kinase = target: T1, human ALK kinase (Homo sapiens, UniProt Q9UM73); test: ALK kinase inhibitory activity, mobility shift assay (MSA, Carna Biosciences); assay type: biochemical; conditions: inhibition rate at 10 nM
T1 construct: GST (N); purchased Carna Biosciences, Inc; host or cells: baculovirus expression system
T1 sequence (Q9UM73 1058-1620): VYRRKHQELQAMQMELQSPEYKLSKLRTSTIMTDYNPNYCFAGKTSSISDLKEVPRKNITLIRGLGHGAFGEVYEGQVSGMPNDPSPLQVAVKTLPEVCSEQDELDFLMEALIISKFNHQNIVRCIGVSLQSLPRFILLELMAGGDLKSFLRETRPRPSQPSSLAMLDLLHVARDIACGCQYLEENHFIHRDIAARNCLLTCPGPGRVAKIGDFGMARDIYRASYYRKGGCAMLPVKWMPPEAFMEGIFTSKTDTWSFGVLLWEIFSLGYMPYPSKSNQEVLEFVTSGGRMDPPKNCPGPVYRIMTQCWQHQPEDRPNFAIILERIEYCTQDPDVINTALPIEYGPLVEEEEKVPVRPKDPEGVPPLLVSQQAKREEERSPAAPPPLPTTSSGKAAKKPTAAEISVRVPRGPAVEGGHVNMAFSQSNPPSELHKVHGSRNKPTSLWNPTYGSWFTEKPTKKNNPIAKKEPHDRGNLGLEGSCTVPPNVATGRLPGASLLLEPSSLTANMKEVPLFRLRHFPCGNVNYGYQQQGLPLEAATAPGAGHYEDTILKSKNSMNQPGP
Method: The ALK kinase inhibitory activity was measured using a mobility shift assay (MSA) provided by Carna Biosciences, Inc.
The test compound was dissolved in DMSO to prepare a 1 µM solution. The solution was further diluted 25 times with an assay buffer (20 mmol/L HEPES, 0.01%Triton (registered trademark) X-100, 1 mmol/L DTT, pH 7.5) to obtain a test compound solution.
The human ALK kinase was expressed by fusing the cytoplasmic domain (1058 to 1620 amino acids of Accession No. BAG 10812.1) with GST at the N-terminus using the baculovirus expression system. The GST-ALK was purified by glutathione sepharose chromatography. A 4-fold concentration substrate (Srctide, 1000 nmol/L)/ATP (50 µmol/L)/metal solution (Mg, 5 mmol/L) was prepared with kit buffer (20 mmol/L HEPES, 0.01% Triton (registered trademark) X-100, 5 mmol/L DTT, pH 7.5). A 2-fold concentration kinase solution was prepared with assay buffer.
In the same manner as described in Test Example 1, tests and evaluation of inhibitory activity and data analysis were performed.

FAK protein, sequence (Q05397 whole entry): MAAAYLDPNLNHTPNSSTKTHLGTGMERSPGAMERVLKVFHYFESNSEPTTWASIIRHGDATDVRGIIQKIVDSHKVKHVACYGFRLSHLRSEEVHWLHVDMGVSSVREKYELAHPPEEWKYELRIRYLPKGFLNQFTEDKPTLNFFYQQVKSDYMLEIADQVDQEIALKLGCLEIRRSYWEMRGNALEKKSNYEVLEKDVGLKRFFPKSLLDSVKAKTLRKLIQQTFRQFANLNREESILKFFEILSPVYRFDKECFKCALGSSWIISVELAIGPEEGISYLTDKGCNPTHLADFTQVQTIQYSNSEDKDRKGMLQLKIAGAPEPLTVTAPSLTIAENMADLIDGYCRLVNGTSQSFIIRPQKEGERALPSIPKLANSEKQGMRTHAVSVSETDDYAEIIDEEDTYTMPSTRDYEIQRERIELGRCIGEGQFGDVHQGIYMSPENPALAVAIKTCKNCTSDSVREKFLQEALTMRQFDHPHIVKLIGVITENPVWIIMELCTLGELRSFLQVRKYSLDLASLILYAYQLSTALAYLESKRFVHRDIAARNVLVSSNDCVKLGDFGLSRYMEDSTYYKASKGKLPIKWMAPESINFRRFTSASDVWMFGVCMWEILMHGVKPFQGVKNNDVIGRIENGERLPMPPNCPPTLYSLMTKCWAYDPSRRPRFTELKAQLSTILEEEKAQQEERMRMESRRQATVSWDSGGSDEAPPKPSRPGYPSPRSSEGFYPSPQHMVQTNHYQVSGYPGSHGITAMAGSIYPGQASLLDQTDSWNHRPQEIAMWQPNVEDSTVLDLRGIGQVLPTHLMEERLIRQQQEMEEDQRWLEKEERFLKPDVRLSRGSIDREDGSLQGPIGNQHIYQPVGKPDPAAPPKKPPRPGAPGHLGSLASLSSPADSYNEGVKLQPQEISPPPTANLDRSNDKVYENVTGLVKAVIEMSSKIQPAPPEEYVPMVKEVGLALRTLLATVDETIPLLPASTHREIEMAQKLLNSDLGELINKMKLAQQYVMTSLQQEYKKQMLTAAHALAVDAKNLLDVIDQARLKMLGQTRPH

Row | Compound | FAK protein degradation rate (FAK protein) [%] | inhibition at 0.01 µM (human ALK kinase) [%]
1 | C[C@@H]1CN(CC(=O)N2CC(C)(C)c3ncc(Cc4ccc(F)cc4)cc32)[C@@H](CN(C)CCOCCOCCOCCOCC(=O)Nc2ccc(Nc3ncc(C(F)(F)F)c(NCc4cccc(S(C)(=O)=O)c4)n3)cc2)CN1 [Example 112, 1-((2R,5R)-1-(2-(6-(4-Fluorobenzyl)-3,3-dimethyl-2,3-dihydro-1H-pyrrolo[3,2-b]pyridin-1-yl)-2-oxoethyl)-5-methylpiperazin-2-yl)-2-methyl-N-(4-((4-((3-(methylsulfonyl)benzyl)amino)-5-(trifluoromethyl)pyrimidin-2-yl)amino)phenyl)-5,8,11,14-tetraoxa-2-azahexadecan-16-amide] | ≥ 75 | 
2 | Cc1cc(Nc2ncc(Cl)c(Nc3ccccc3S(=O)(=O)C(C)C)n2)c(OC(C)C)cc1C1CCN(CC(=O)NCCOCCOCCOCCOCCOCCN(C)C[C@H]2CN[C@H](C)CN2CC(=O)N2CC(C)(C)c3ncc(Cc4ccc(F)cc4)cc32)CC1 [Example 89, 2-(4-(4-((5-Chloro-4-((2-(isopropylsulfonyl)phenyl)amino)pyrimidin-2-yl)amino)-5-isopropoxy-2-methylphenyl)piperidin-1-yl)-N-(1-((2R,5R)-1-(2-(6-(4-fluorobenzyl)-3,3-dimethyl-2,3-dihydro-1H-pyrrolo[3,2-b]pyridin-1-yl)-2-oxoethyl)-5-methylpiperazin-2-yl)-2-methyl-5,8,11,14,17-pentaoxa-2-azanonadecan-19-yl)acetamide] |  | 50 to 75
3 | 2-(4-((6-(4-Fluorobenzyl)-1-(2-((2R,5R)-2-(methoxymethyl)-5-methylpiperazin-1-yl)acetyl)-3,3-dimethyl-2,3-dihydro-1H-pyrrolo[3,2-b]pyridin-5-yl)methyl)piperazin-1-yl)-N-(4-((4-((3-(methylsulfonyl)benzyl)amino)-5-(trifluoromethyl)pyrimidin-2-yl)amino)phenyl)acetamide [Example 114] | ≥ 75 | 
4 | Cc1cc(Nc2ncc(Cl)c(Nc3ccccc3S(=O)(=O)C(C)C)n2)c(OC(C)C)cc1C1CCN(CC(=O)NCCOCCN(C)C[C@H]2CN[C@H](C)CN2CC(=O)N2CC(C)(C)c3ncc(Cc4ccc(F)cc4)cc32)CC1 [Example 85, 2-(4-(4-((5-Chloro-4-((2-(isopropylsulfonyl)phenyl)amino)pyrimidin-2-yl)amino)-5-isopropoxy-2-methylphenyl)piperidin-1-yl)-N-(2-(2-((((2R,5R)-1-(2-(6-(4-fluorobenzyl)-3,3-dimethyl-2,3-dihydro-1H-pyrrolo[3,2-b]pyridin-1-yl)-2-oxoethyl)-5-methylpiperazin-2-yl)methyl) (methyl)amino)ethoxy)ethyl)acetamide] |  | 50 to 75
5 | COC[C@H]1CN[C@H](C)CN1CC(=O)N1CC(C)(C)c2ncc(Cc3cccc(OCCOCCOCCOCCOCCOCCNC(=O)CN4CCC(c5cc(OC(C)C)c(Nc6ncc(Cl)c(Nc7ccccc7S(=O)(=O)C(C)C)n6)cc5C)CC4)c3)cc21 [Example 107, 2-(4-(4-((5-Chloro-4-((2-(isopropylsulfonyl)phenyl)amino)pyrimidin-2-yl)amino)-5-isopropoxy-2-methylphenyl)piperidin-1-yl)-N-(17-(3-((1-(2-((2R,5R)-2-(methoxymethyl)-5-methylpiperazin-1-yl)acetyl)-3,3-dimethyl-2,3-dihydro-1H-pyrrolo[3,2-b]pyridin-6-yl)methyl)phenoxy)-3,6,9,12,15-pentaoxaheptadecyl)acetamide] |  | ≥ 75
6 | COC[C@H]1CN[C@H](C)CN1CC(=O)N1CC(C)(C)c2ncc(Cc3ccccc3OCCN3CCN(CC(=O)Nc4ccc(Nc5ncc(C(F)(F)F)c(NCc6cccc(S(C)(=O)=O)c6)n5)cc4)CC3)cc21 [Example 119, 2-(4-(2-(2-((1-(2-((2R,5R)-2-(Methoxymethyl)-5-methylpiperazin-1-yl)acetyl)-3,3-dimethyl-2,3-dihydro-1H-pyrrolo[3,2-b]pyridin-6-yl)methyl)phenoxy)ethyl)piperazin-1-yl)-N-(4-((4-((3-(methylsulfonyl)benzyl)amino)-5-(trifluoromethyl)pyrimidin-2-yl)amino)phenyl)acetamide] | ≥ 75 | 
7 | COC[C@H]1CN[C@H](C)CN1CC(=O)N1CC(C)(C)c2ncc(Cc3cccc(OCCN4CCN(CC(=O)Nc5ccc(Nc6ncc(C(F)(F)F)c(NCc7cccc(S(C)(=O)=O)c7)n6)cc5)CC4)c3)cc21 [Example 124, 2-(4-(2-(3-((1-(2-((2R,5R)-2-(Methoxymethyl)-5-methylpiperazin-1-yl)acetyl)-3,3-dimethyl-2,3-dihydro-1H-pyrrolo[3,2-b]pyridin-6-yl)methyl)phenoxy)ethyl)piperazin-1-yl)-N-(4-((4-((3-(methylsulfonyl)benzyl)amino)-5-(trifluoromethyl)pyrimidin-2-yl)amino)phenyl)acetamide] | ≥ 75 | 
8 | COC[C@H]1CN[C@H](C)CN1CC(=O)N1CC(C)(C)c2nc(CN(C)CCOCCOCCNC(=O)CN3CCC(c4cc(OC(C)C)c(Nc5ncc(Cl)c(Nc6ccccc6S(=O)(=O)C(C)C)n5)cc4C)CC3)c(Cc3ccc(F)cc3)cc21 [Example 92, 2-(4-(4-((5-Chloro-4-((2-(isopropylsulfonyl)phenyl)amino)pyrimidin-2-yl)amino)-5-isopropoxy-2-methylphenyl)piperidin-1-yl)-N-(2-(2-(2-(((6-(4-fluorobenzyl)-1-(2-((2R,5R)-2-(methoxymethyl)-5-methylpiperazin-1-yl)acetyl)-3,3-dimethyl-2,3-dihydro-1H-pyrrolo[3,2-b]pyridin-5-yl)methyl) (methyl)amino)ethoxy)ethoxy)ethyl) acetamide] |  | ≥ 75
9 | COC[C@H]1CN[C@H](C)CN1CC(=O)N1CC(C)(C)c2nc(CN(C)CCOCCOCCOCCOCCOCCNC(=O)CN3CCC(c4cc(OC(C)C)c(Nc5ncc(Cl)c(Nc6ccccc6S(=O)(=O)C(C)C)n5)cc4C)CC3)c(Cc3ccc(F)cc3)cc21 [Example 95, 2-(4-(4-((5-Chloro-4-((2-(isopropylsulfonyl)phenyl)amino)pyrimidin-2-yl)amino)-5-isopropoxy-2-methylphenyl)piperidin-1-yl)-N-(1-(6-(4-fluorobenzyl)-1-(2-((2R,5R)-2-(methoxymethyl)-5-methylpiperazin-1-yl)acetyl)-3,3-dimethyl-2,3-dihydro-1H-pyrrolo[3,2-b]pyridin-5-yl)-2-methyl-5,8,11,14,17-pentaoxa-2-azanonadecan-19-yl)acetamide] |  | ≥ 75
10 | COC[C@H]1CN[C@H](C)CN1CC(=O)N1CC(C)(C)c2ncc(Cc3ccccc3OCCOCCOCCOCCOCCNC(=O)CN3CCC(c4cc(OC(C)C)c(Nc5ncc(Cl)c(Nc6ccccc6S(=O)(=O)C(C)C)n5)cc4C)CC3)cc21 [Example 100, 2-(4-(4-((5-Chloro-4-((2-(isopropylsulfonyl)phenyl)amino)pyrimidin-2-yl)amino)-5-isopropoxy-2-methylphenyl)piperidin-1-yl)-N-(14-(2-((1-(2-((2R,5R)-2-(methoxymethyl)-5-methylpiperazin-1-yl)acetyl)-3,3-dimethyl-2,3-dihydro-1H-pyrrolo[3,2-b]pyridin-6-yl)methyl)phenoxy)-3,6,9,12-tetraoxatetradecyl)acetamide] |  | ≥ 75
11 | C[C@@H]1CN(CC(=O)N2CC(C)(C)c3ncc(Cc4ccc(F)cc4)cc32)[C@@H](CN(C)CCOCCOCC(=O)Nc2ccc(Nc3ncc(C(F)(F)F)c(NCc4cccc(S(C)(=O)=O)c4)n3)cc2)CN1 [Example 110, 2-(2-(2-((((2R,5R)-1-(2-(6-(4-fluorobenzyl)-3,3-dimethyl-2,3-dihydro-1H-pyrrolo[3,2-b]pyridin-1-yl)-2-oxoethyl)-5-methylpiperazin-2-yl)methyl) (methyl)amino)ethoxy)ethoxy)-N-(4-((4-((3-(methylsulfonyl)benzyl)amino)-5-(trifluoromethyl)pyrimidin-2-yl)amino)phenyl)acetamide] | ≥ 75 | 
